Format in all cases: toxicity, cell-based
One data set relates to HEK-293T. Description: Incucyte cell viability with HEK293T. As to conditions: human, 10 µM, compound concentration 10 uM.
The next data set concerns Fibroblast. Briefly: Incucyte cell viability with human fibroblast. As to conditions: 10 µM, compound concentration 10 uM.
For another data set, the system named is U2OS. Description: Incucyte cell viability with U2OS. The conditions noted are these: human, 10 µM, compound concentration 10 uM.
[1] abbreviates: 0 h, replicate number 1, timepoint 0 hours.
The mark [2] stands for this setting: 0 h, replicate number 2, timepoint 0 hours.
Where [3] appears, read: 6 h, replicate number 1, timepoint 6 hours.
Setting [4] is: 6 h, replicate number 2, timepoint 6 hours.
Where [5] appears, read: 12 h, replicate number 1, timepoint 12 hours.
Where [6] appears, read: 12 h, replicate number 2, timepoint 12 hours.
[7] abbreviates: 18 h, replicate number 1, timepoint 18 hours.
Setting [8] is: 18 h, replicate number 2, timepoint 18 hours.
Where [9] appears, read: 24 h, replicate number 1, timepoint 24 hours.
Setting [10] is: 24 h, replicate number 2, timepoint 24 hours.
Further: filed as whole numbers so only -1 and 0 and 1 occur.

Take `CCCCc1nc2ccc(NC(=O)NC3CCCCC3)cc2n1Cc1ccc(-c2ccccc2C(=O)O)cc1`: the “Growth Rate” value is 1 in the data set with HEK-293T (setting [1]); 0 in the data set on HEK-293T (setting [2]); 0 in the data set with HEK-293T (setting [3]); 1 in the data set with HEK-293T (setting [4]); 0 with HEK-293T (setting [5]); 1 with HEK-293T (setting [6]). Also, the “Growth Rate” value with HEK-293T (setting [7]) turned out to be 0; in the data set with HEK-293T (setting [8]), 1; in the data set on HEK-293T (setting [9]), 0; in the data set with Fibroblast (setting [1]), 0; in the data set on Fibroblast (setting [3]), 1; with Fibroblast (setting [5]), 0. Moreover, the “Growth Rate” value worked out at 1 in the data set with Fibroblast (setting [7]); 1 in the data set on Fibroblast (setting [9]); 0 in the data set on U2OS (setting [1]); 0 with U2OS (setting [3]); 0 with U2OS (setting [5]); 1 in the data set with U2OS (setting [6]). The “Growth Rate” value with U2OS (setting [7]) is 0; in the data set on U2OS (setting [8]) it was 1; in the data set on U2OS (setting [9]), 0; with U2OS (setting [10]) it was 1.

On to `CCOC(=O)c1cc(C#N)c(N2CCC(C(=O)NS(=O)(=O)Cc3ccccc3)CC2)nc1C`, for which the “Growth Rate” value in the data set with HEK-293T (setting [1]) amounted to 1; with HEK-293T (setting [2]), 0; in the data set on HEK-293T (setting [3]), 0; in the data set on HEK-293T (setting [4]) it was 1; in the data set with HEK-293T (setting [5]), 0; in the data set on HEK-293T (setting [7]) it was 0. The “Growth Rate” value is recorded as 0 with HEK-293T (setting [9]); 1 with HEK-293T (setting [10]); 0 in the data set on Fibroblast (setting [1]); 0 with Fibroblast (setting [3]); 0 with Fibroblast (setting [5]); 0 with Fibroblast (setting [7]). The “Growth Rate” value was determined as 1 with Fibroblast (setting [9]); 0 in the data set with Fibroblast (setting [10]); 1 in the data set on U2OS (setting [2]); 1 with U2OS (setting [3]); 0 in the data set with U2OS (setting [4]); 0 with U2OS (setting [5]). For the same molecule, the “Growth Rate” value with U2OS (setting [6]) is given as 1; in the data set with U2OS (setting [7]) it was 0; in the data set with U2OS (setting [8]), 1; in the data set on U2OS (setting [9]), 0; in the data set with U2OS (setting [10]), 1.

On to `C=CCN1C[C@H](C)N([C@H](c2ccc(C(=O)N(CC)CC)cc2)c2cccc(O)c2)C[C@H]1C`, for which the “Growth Rate” value in the data set on HEK-293T (setting [1]) came out at 1; in the data set on HEK-293T (setting [2]) it was 0; in the data set with HEK-293T (setting [3]) it was 0; with HEK-293T (setting [5]), 0; in the data set on HEK-293T (setting [7]), 0; with HEK-293T (setting [9]) it was 0. The “Growth Rate” value in the data set with Fibroblast (setting [1]) is given as 0; in the data set on Fibroblast (setting [3]) it was 0; in the data set with Fibroblast (setting [5]), 0; in the data set on Fibroblast (setting [7]), 0; with Fibroblast (setting [9]), 1; in the data set with Fibroblast (setting [10]), 0. In addition, the “Growth Rate” value in the data set with U2OS (setting [1]) was determined as 0; in the data set on U2OS (setting [4]), 1; with U2OS (setting [6]), 1; in the data set on U2OS (setting [7]), 1; in the data set on U2OS (setting [9]), 1.

On to `C[C@H](CO)Nc1nc(SCc2cccc(Cl)c2F)nc2[nH]c(=O)sc12`, for which the “Growth Rate” value is reported as 0 in the data set with HEK-293T (setting [1]); 1 in the data set on HEK-293T (setting [3]); 1 in the data set on HEK-293T (setting [5]); 1 in the data set on HEK-293T (setting [7]); 1 in the data set with HEK-293T (setting [9]); 0 in the data set on Fibroblast (setting [1]). Moreover, the “Growth Rate” value in the data set with Fibroblast (setting [3]) was 1; with Fibroblast (setting [4]), 0; with Fibroblast (setting [5]), 1; with Fibroblast (setting [7]) it was 1; in the data set with Fibroblast (setting [8]), 0; in the data set with Fibroblast (setting [9]), 1. In addition, the “Growth Rate” value with U2OS (setting [3]) worked out at 1; with U2OS (setting [4]), 0; in the data set on U2OS (setting [5]), 0; with U2OS (setting [7]) it was 0; in the data set on U2OS (setting [9]), 1; in the data set with U2OS (setting [10]), 0.

On to `CCNC(=O)c1cc2c(N3CCOC[C@@H]3C)ccnc2[nH]1`, for which the “Growth Rate” value in the data set on HEK-293T (setting [1]) amounted to 1; in the data set with HEK-293T (setting [2]), 0; in the data set on HEK-293T (setting [3]), 0; in the data set on HEK-293T (setting [5]) it was 0; with HEK-293T (setting [7]) it was 0; in the data set on HEK-293T (setting [9]) it was 0. In addition, the “Growth Rate” value in the data set with Fibroblast (setting [1]) is given as 0; in the data set with Fibroblast (setting [3]), 0; in the data set with Fibroblast (setting [4]), 1; in the data set with Fibroblast (setting [5]) it was 1; with Fibroblast (setting [6]), 0; in the data set with Fibroblast (setting [7]) it was 1. The “Growth Rate” value in the data set on Fibroblast (setting [8]) is listed as 0; in the data set with Fibroblast (setting [9]), 1; with Fibroblast (setting [10]), 0; in the data set on U2OS (setting [1]), 1; in the data set on U2OS (setting [3]), 1; in the data set on U2OS (setting [4]) it was 0. Further, the “Growth Rate” value in the data set with U2OS (setting [5]), in the data set on U2OS (setting [7]) and with U2OS (setting [9]) was 0 each time.

For the molecule `N#Cc1c(N)nc(SCC(N)=O)c(C#N)c1-c1ccc(OCC2CC2)cc1`, the “Growth Rate” value in the data set with HEK-293T (setting [1]) is 0; with HEK-293T (setting [3]) it was 1; with HEK-293T (setting [5]), 1; in the data set on HEK-293T (setting [6]) it was 0; in the data set with HEK-293T (setting [7]) it was 0; in the data set on HEK-293T (setting [9]), 0. In addition, the “Growth Rate” value with Fibroblast (setting [1]) worked out at 0; with Fibroblast (setting [4]), 0; in the data set with Fibroblast (setting [6]), 1; in the data set on Fibroblast (setting [8]), 1; in the data set on Fibroblast (setting [9]), 1; in the data set on U2OS (setting [1]) it was 0. The “Growth Rate” value in the data set with U2OS (setting [4]) is reported as 0; with U2OS (setting [5]), 1; with U2OS (setting [7]), 1; with U2OS (setting [9]), 1; with U2OS (setting [10]), 0.

As to `CCCCN(CCCC)C(=O)CN1C[C@@H](c2ccc3c(c2)OCO3)[C@H](C(=O)O)[C@H]1c1ccc(OC)cc1`, the “Growth Rate” value stood at 0 in the data set on HEK-293T (setting [1]); 1 with HEK-293T (setting [3]); 1 with HEK-293T (setting [5]); 1 in the data set with HEK-293T (setting [7]); 0 in the data set on HEK-293T (setting [8]); 1 in the data set on HEK-293T (setting [9]). Besides, the “Growth Rate” value with HEK-293T (setting [10]) was found to be 0; with Fibroblast (setting [1]), 0; in the data set on Fibroblast (setting [4]), 0; in the data set on Fibroblast (setting [6]), 1; with Fibroblast (setting [7]), 1; in the data set with Fibroblast (setting [9]) it was 1. The “Growth Rate” value with Fibroblast (setting [10]), in the data set on U2OS (setting [3]), in the data set on U2OS (setting [5]), in the data set with U2OS (setting [7]) and in the data set with U2OS (setting [9]) was 0 in each case.

With `CCN(CC)CCCCC1CCN(CC(=O)N2c3ccccc3C(=O)Nc3cccnc32)CC1`, the “Growth Rate” value was 0 with HEK-293T (setting [1]); 1 in the data set with HEK-293T (setting [3]); 1 in the data set on HEK-293T (setting [5]); 1 with HEK-293T (setting [7]); 1 with HEK-293T (setting [9]); 0 with Fibroblast (setting [1]). For the same molecule, the “Growth Rate” value in the data set on Fibroblast (setting [2]) turned out to be 1; in the data set on Fibroblast (setting [5]) it was 1; in the data set with Fibroblast (setting [7]) it was 1; with Fibroblast (setting [9]) it was 1; with U2OS (setting [1]), 0; in the data set on U2OS (setting [4]) it was 0. Further, the “Growth Rate” value was determined as 1 in the data set with U2OS (setting [5]); 1 with U2OS (setting [7]); 0 in the data set on U2OS (setting [8]); 1 with U2OS (setting [9]); 0 in the data set on U2OS (setting [10]).

For the molecule `O=C(NCc1ccc(F)cc1)C1CCN(S(=O)(=O)c2cc(Cl)cc(Cl)c2)CC1`, the “Growth Rate” value is recorded as 0 with HEK-293T (setting [1]); 1 with HEK-293T (setting [3]); 1 in the data set on HEK-293T (setting [5]); 0 in the data set on HEK-293T (setting [6]); 0 in the data set on HEK-293T (setting [7]); 0 with HEK-293T (setting [9]). The “Growth Rate” value turned out to be 0 in the data set on Fibroblast (setting [1]); 1 in the data set on Fibroblast (setting [4]); 1 in the data set with Fibroblast (setting [6]); 1 in the data set on Fibroblast (setting [8]); 1 with Fibroblast (setting [9]); 0 with U2OS (setting [1]). The “Growth Rate” value in the data set on U2OS (setting [4]) was 0; with U2OS (setting [5]), 1; in the data set with U2OS (setting [6]) it was 0; in the data set on U2OS (setting [7]), 0; in the data set on U2OS (setting [8]), 1; in the data set with U2OS (setting [9]), 0. Moreover, the “Growth Rate” value in the data set on U2OS (setting [10]) is on record as 1.

Turning to `CCCCN(CCCC)C(=O)CN1C[C@@H](c2cc(OC)c3c(c2)OCO3)[C@H](C(=O)O)[C@H]1CC(C)(C)CCC.Cl`, the “Growth Rate” value in the data set with HEK-293T (setting [1]), in the data set on HEK-293T (setting [3]), with HEK-293T (setting [5]), in the data set on HEK-293T (setting [7]), with HEK-293T (setting [9]) and with Fibroblast (setting [2]) was 0 in each case. Moreover, the “Growth Rate” value is reported as 0 with Fibroblast (setting [3]); 0 in the data set on Fibroblast (setting [5]); 1 in the data set on Fibroblast (setting [6]); 0 with Fibroblast (setting [7]); 1 in the data set with Fibroblast (setting [8]); 0 in the data set with Fibroblast (setting [9]). Moreover, the “Growth Rate” value with Fibroblast (setting [10]) stood at 1; in the data set with U2OS (setting [4]), 0; in the data set with U2OS (setting [5]), 0; in the data set on U2OS (setting [7]) it was 0; with U2OS (setting [8]) it was 1; in the data set on U2OS (setting [9]), 0. The “Growth Rate” value in the data set with U2OS (setting [10]) was determined as 1.

(Values after ChEMBL document CHEMBL4689842, “EUbOPEN Chemogenomics Library wave 1” (2021).)
